Results published in ChEMBL document CHEMBL1649582, “Novel expression vector for secretion of cecropin AD in Bacillus subtilis with enhanced antimicrobial activity” (Antimicrob Agents Chemother, 2009).
In brackets after ≈: the same amount, converted by molar mass. Activity calls are given as the source filed them. The calls are words filed in the database; no cut-off is given here. Where a SMILES comes first, the peptide text is derived from it.

Legend:
Escherichia coli [1] = assay: Antimicrobial activity against Escherichia coli K12D31 by microdilution assay; format: functional
Escherichia coli [2] = assay: Antimicrobial activity against Escherichia coli K88 by microdilution assay; format: functional
Escherichia coli [3] = assay: Antimicrobial activity against Escherichia coli K99 by microdilution assay; format: functional
Salmonella typhimurium = assay: Antimicrobial activity against Salmonella enterica serovar Typhimurium IVDC C77-31 by microdilution assay; format: functional, Salmonella enterica subsp. enterica serovar Typhimurium
Salmonella enteritidis = assay: Antimicrobial activity against Salmonella enterica serovar Enteritidis IVDC C79-52 by microdilution assay; format: functional, Salmonella enterica subsp. enterica serovar Enteritidis
Staphylococcus aureus [4] = assay: Antimicrobial activity against Staphylococcus aureus IVDC C56005 by microdilution assay; format: functional
Enterococcus faecalis = assay: Antimicrobial activity against Streptococcus faecalis IVDC C55614 by microdilution assay; format: functional
Staphylococcus aureus [5] = assay: Antimicrobial activity against Staphylococcus aureus IVDC C56005 assessed as microbial growth inhibition at 55 degC for 20 mins; format: functional, organism-based
Staphylococcus aureus [6] = assay: Antimicrobial activity against Staphylococcus aureus IVDC C56005 assessed as microbial growth inhibition at >85 degC for 20 mins; format: functional, organism-based
Staphylococcus aureus [7] = assay: Antimicrobial activity against Staphylococcus aureus IVDC C56005 assessed as microbial growth inhibition at pH 4 to 9; format: functional, organism-based
Staphylococcus aureus [8] = assay: Antimicrobial activity against Staphylococcus aureus IVDC C56005 assessed as microbial growth inhibition at pH <4.0; format: functional, organism-based
Staphylococcus aureus [9] = assay: Antimicrobial activity against Staphylococcus aureus IVDC C56005 assessed as microbial growth inhibition in presence of proteinase K; format: functional, organism-based
Staphylococcus aureus [10] = assay: Antimicrobial activity against Staphylococcus aureus IVDC C56005 assessed as microbial growth inhibition in presence of trypsin; format: functional, organism-based
Staphylococcus aureus [11] = assay: Antimicrobial activity against Staphylococcus aureus IVDC C56005 assessed as microbial growth inhibition in presence of pepsin; format: functional, organism-based
[12] = Toxicity in human RBCs assessed as induction hemolysis at 0.01 to 200 ug/mL; format: cell-based; conditions: erythrocyte

MIC (Escherichia coli [1]): 1.8 µg/mL (≈ 0.456 µM)
MIC (Escherichia coli [2]): 2 µg/mL (≈ 0.506 µM)
MIC (Escherichia coli [3]): 2 µg/mL (≈ 0.506 µM)
MIC (Salmonella typhimurium): 8 µg/mL (≈ 2.02 µM)
MIC (Salmonella enteritidis): 16 µg/mL (≈ 4.05 µM)
MIC (Staphylococcus aureus [4]): 0.2 µg/mL (≈ 0.0506 µM)
MIC (Enterococcus faecalis): 24 µg/mL (≈ 6.07 µM)
SMILES: CC[C@H](C)[C@H](NC(=O)[C@H](CCCCN)NC(=O)[C@H](CCCCN)NC(=O)[C@H](Cc1ccccc1)NC(=O)[C@H](CC(C)C)NC(=O)[C@H](CCCCN)NC(=O)[C@H](Cc1c[nH]c2ccccc12)NC(=O)[C@@H](N)CCCCN)C(=O)N[C@@H](CCC(=O)O)C(=O)N[C@@H](CCCCN)C(=O)N[C@H](C(=O)NCC(=O)N[C@@H](CCC(N)=O)C(=O)N[C@@H](CCCNC(=N)N)C(=O)N[C@H](C(=O)N[C@@H](CCCNC(=N)N)C(=O)N[C@@H](CC(=O)O)C(=O)N[C@@H](C)C(=O)N[C@H](C(=O)N[C@H](C(=O)N[C@@H](CO)C(=O)N[C@@H](C)C(=O)NCC(=O)N1CCC[C@H]1C(=O)N[C@@H](C)C(=O)N[C@H](C(=O)N[C@@H](C)C(=O)N[C@H](C(=O)N[C@H](C(=O)N[C@@H](C)C(=O)N[C@@H](CCC(N)=O)C(=O)N[C@@H](C)C(=O)N[C@H](C(=O)N[C@@H](C)C(=O)N[C@@H](CC(C)C)C(=O)N[C@@H](C)C(=O)N[C@@H](CCCCN)C(=O)O)[C@@H](C)O)C(C)C)[C@@H](C)O)C(C)C)[C@@H](C)CC)C(C)C)C(C)C)C(C)C [CECROPIN AD] (H-KWKLFKKIEKVGQRVRDAVISAGPAVATVAQATALAK-OH)
growth inhibition (GI) (Staphylococcus aureus [5]): Active
growth inhibition (GI) (Staphylococcus aureus [6]): inactive
growth inhibition (GI) (Staphylococcus aureus [7]): Active
growth inhibition (GI) (Staphylococcus aureus [8]): inactive
growth inhibition (GI) (Staphylococcus aureus [9]): Active
growth inhibition (GI) (Staphylococcus aureus [10]): Active
growth inhibition (GI) (Staphylococcus aureus [11]): Active
Activity [12]: Non-toxic
